Reference: ChEMBL document CHEMBL1201862, “PubChem BioAssay data set” (2004)
The source made the active and inactive calls.

Key:
[1] = target: T1, Replicative DNA helicase DnaB (Mycobacterium tuberculosis, UniProt P9WMR3); test: DnaB intein splicing inhibitors, dose response, biochemical, cell-free fluorescence (AID 449749); format: functional
T1 sequence (P9WMR3 whole entry): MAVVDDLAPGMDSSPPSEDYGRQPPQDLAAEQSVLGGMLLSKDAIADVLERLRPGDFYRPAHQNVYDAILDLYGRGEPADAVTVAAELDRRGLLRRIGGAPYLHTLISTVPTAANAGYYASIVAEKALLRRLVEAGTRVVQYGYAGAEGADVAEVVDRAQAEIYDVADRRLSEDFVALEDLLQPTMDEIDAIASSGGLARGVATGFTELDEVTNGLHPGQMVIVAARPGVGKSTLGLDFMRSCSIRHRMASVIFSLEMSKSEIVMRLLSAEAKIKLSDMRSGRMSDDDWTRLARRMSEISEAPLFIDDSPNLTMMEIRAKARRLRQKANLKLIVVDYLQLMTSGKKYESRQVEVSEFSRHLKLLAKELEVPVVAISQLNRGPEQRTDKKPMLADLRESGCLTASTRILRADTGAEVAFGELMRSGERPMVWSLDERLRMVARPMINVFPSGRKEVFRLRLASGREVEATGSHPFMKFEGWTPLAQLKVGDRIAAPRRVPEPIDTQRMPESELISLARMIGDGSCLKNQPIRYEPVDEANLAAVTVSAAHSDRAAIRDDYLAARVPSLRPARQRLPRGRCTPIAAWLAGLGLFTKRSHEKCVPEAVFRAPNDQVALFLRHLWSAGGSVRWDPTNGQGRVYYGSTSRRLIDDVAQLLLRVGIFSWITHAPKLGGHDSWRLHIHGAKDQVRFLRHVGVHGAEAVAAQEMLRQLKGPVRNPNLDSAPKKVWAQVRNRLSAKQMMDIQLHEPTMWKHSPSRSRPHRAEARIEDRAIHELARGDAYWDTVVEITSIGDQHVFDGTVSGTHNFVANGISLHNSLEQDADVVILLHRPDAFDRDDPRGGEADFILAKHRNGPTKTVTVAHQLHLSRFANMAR

[2] = target: T2, Protein RecA (Mycobacterium tuberculosis, UniProt P9WHJ3); test: Fluorescence Cell-Free Homogeneous Dose Retest to Identify Inhibitors of RecA-Intein Splicing Activity. [Related pubchem assays (depositor defined):AID2097, AID2223, AID489010, AID492950]; format: functional
T2 sequence (P9WHJ3 whole entry): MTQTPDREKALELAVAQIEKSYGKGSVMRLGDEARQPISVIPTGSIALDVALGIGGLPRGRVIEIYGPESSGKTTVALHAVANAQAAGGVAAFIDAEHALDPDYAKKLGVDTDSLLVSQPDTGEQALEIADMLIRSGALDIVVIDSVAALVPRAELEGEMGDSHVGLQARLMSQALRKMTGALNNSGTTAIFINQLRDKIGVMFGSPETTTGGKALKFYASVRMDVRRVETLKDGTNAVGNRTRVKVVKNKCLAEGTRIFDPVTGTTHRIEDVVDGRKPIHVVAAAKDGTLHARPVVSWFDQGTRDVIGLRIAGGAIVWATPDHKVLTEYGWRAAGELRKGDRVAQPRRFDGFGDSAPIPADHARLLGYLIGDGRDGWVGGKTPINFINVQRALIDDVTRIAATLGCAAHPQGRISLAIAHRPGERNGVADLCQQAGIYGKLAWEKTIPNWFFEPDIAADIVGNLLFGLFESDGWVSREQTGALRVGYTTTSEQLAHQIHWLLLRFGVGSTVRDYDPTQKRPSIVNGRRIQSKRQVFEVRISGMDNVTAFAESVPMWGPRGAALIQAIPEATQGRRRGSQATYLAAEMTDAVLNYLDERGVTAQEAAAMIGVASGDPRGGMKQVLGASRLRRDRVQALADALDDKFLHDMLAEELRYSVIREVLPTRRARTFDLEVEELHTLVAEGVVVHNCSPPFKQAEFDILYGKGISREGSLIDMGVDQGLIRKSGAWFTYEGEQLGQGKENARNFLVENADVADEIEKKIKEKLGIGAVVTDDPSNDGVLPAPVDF

[3] = target: T3, Rac GTPase-activating protein 1 (Homo sapiens, UniProt Q9H0H5); test: blockers of MgcRacGAP-driven Rac1 GTP hydrolysis – biochemical, ADP Hunter fluorescence, primary and confirmatory, confirmation (AID 624330); format: functional
T3 sequence (Q9H0H5 whole entry): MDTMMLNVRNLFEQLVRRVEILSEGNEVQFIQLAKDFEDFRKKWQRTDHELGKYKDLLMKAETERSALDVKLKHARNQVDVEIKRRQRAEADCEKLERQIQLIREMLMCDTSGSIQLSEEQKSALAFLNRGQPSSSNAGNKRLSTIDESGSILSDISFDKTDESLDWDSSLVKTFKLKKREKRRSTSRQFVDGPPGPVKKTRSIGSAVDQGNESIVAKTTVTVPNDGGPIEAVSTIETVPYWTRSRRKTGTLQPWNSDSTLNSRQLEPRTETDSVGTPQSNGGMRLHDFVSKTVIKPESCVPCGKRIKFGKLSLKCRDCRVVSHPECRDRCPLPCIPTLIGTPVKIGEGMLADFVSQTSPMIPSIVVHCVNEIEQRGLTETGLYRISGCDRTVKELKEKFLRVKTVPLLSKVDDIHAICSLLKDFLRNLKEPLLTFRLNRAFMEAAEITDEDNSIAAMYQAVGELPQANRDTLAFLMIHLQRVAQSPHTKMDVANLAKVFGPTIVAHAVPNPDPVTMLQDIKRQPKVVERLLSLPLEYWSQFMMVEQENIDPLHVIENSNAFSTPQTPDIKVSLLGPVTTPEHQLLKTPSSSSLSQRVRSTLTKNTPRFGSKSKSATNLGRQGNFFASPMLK

[4] = target: T4, Corticotropin-releasing factor receptor 2/Corticotropin-releasing factor-binding protein (Homo sapiens, UniProt P24387+Q13324); test: Dose Response confirmation of uHTS hits for small molecule antagonists of the CRF-binding protein and CRF-R2 receptor complex.; format: functional; conditions: read-out: IC50_Mean
T4 sequence (Q13324 whole entry): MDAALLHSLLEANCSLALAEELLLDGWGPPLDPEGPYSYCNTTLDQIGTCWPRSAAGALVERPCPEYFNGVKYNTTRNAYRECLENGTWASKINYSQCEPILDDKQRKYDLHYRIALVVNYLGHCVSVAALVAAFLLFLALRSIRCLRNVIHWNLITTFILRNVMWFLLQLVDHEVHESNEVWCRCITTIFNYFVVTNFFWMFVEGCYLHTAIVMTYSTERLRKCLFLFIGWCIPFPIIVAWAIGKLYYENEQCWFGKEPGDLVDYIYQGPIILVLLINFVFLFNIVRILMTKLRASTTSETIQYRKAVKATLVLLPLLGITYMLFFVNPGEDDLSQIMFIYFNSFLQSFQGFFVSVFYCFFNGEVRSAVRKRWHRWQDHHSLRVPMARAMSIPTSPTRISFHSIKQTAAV
T4 sequence (P24387 whole entry): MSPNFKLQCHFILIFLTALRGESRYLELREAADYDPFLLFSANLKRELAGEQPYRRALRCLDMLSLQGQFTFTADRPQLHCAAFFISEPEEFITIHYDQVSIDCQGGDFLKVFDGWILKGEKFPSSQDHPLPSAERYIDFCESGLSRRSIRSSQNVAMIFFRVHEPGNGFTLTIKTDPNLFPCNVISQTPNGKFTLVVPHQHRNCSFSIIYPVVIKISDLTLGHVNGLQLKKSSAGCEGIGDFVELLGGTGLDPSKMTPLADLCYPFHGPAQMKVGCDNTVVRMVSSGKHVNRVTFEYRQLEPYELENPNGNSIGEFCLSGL

[5] = target: T4, Corticotropin-releasing factor receptor 2/Corticotropin-releasing factor-binding protein; test: activators of CRF receptor 2 with binding protein – uHTS hits, confirmation (AID 602473); format: functional; conditions: read-out: EC50_Mean
[6] = target: Cytochrome P450 3A4 (Homo sapiens, UniProt P08684);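 also: CYP3A4 tested as one member of a cytochrome P450 panel screen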
Chain of Cytochrome P450 3A4 (P08684 whole entry): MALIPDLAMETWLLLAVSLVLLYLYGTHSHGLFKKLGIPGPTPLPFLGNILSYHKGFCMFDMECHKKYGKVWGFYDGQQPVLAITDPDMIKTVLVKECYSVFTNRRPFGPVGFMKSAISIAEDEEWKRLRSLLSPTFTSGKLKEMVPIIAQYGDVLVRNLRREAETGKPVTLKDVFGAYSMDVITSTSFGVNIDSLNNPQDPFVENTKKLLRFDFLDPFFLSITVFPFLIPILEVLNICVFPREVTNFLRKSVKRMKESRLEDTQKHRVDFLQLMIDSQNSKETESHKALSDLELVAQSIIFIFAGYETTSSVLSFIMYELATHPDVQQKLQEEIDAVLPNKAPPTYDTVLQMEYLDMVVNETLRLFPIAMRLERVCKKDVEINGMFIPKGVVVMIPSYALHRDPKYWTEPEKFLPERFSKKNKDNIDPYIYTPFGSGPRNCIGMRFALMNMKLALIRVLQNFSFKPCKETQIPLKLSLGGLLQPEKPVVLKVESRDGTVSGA

[7] = target: Cytochrome P450 2C9 (Homo sapiens, UniProt P11712)
Chain of Cytochrome P450 2C9 (P11712 whole entry): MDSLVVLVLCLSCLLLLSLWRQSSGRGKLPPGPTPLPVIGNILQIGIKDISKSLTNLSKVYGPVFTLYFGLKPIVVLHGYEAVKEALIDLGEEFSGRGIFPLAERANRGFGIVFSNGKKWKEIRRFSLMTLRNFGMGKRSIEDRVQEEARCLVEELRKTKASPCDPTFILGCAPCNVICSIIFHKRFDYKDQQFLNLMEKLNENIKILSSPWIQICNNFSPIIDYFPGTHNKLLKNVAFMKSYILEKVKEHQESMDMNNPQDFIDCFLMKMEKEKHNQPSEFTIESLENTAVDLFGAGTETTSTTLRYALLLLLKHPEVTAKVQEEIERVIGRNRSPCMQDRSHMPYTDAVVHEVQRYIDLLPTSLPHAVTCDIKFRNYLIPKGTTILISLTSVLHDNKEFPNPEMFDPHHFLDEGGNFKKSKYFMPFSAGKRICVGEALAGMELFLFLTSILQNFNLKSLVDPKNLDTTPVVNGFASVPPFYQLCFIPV

[8] = test system: Streptococcus sp. 'group A'; test: Streptococcus pyogenes SK(-)GAS viability under kanamycin – luminescence, BacTiterGlo, confirmation, counter-screen for streptokinase expression inhibitor project, dose response (AID 1900); format: functional, organism-based
[9] = target: T5, Streptokinase A (Streptococcus pyogenes serotype M1, UniProt P10520); test: viability-normalized secreted streptokinase activity reduction – plasminogen activation absorbance, OD405, dose response (AID 1914); format: functional, Streptococcus pyogenes M1 GAS;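 also: secreted streptokinase activity via plasminogen activation per viability signal from cell pellet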
T5 sequence (P10520 whole entry): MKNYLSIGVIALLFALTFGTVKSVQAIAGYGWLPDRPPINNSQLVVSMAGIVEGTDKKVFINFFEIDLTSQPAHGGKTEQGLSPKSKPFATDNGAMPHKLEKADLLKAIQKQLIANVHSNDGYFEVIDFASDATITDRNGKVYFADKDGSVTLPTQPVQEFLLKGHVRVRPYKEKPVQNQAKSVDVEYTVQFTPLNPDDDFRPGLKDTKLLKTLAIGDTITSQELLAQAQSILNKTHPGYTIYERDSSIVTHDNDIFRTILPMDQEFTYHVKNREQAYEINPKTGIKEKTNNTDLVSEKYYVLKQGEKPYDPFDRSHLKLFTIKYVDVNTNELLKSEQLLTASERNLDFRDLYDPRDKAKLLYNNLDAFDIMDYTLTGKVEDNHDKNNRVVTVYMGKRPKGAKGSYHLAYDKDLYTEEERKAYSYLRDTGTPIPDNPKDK

[10] = test system: Streptococcus; test: GAS UMAA2166 growth inhibition – luminescence, BacTiterGlo, counter-screen for streptokinase expression inhibitor project, dose response (AID 1915); format: functional, organism-based;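 also: potency for reduction of bacterial viability or growth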
[11] = target: Cytochrome P450 2C19 (Homo sapiens, UniProt P33261); test: Cytochrome panel assay with activity outcomes. Panel member name: p450-cyp2c19 Compounds with AC50 equal or less than 10 uM are considered active; format: functional; conditions: read-out: AC50
Chain of Cytochrome P450 2C19 (P33261 whole entry): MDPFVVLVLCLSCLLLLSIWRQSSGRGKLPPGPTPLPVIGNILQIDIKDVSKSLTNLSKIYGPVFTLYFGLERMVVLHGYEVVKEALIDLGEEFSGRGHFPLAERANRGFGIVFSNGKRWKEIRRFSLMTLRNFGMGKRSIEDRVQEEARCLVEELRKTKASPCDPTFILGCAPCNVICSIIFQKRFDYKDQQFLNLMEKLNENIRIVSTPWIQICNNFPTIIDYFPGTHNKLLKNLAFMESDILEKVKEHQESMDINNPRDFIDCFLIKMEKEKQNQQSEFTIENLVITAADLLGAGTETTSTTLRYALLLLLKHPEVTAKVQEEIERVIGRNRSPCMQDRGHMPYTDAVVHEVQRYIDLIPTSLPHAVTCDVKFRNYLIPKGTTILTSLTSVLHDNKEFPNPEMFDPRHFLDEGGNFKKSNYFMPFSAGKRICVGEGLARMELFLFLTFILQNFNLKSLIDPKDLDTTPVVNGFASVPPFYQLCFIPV

CCCc1n[nH]c2c1C(c1c[nH]nc1-c1ccc(F)cc1)C(C#N)=C(N)O2 (centres undefined)
AC50 [1]: 2.08 µM (active) | EC50 [2]: 1.54 µM (active)

COc1ccc(CN2CCN(CCCCOc3ccc(Cl)cc3)CC2)c(OC)c1OC
IC50 [3]: 71.4 µM (active)

COc1ccc(C2c3c(-c4ccccc4O)n[nH]c3C(=O)N2Cc2ccco2)cc1 (centres undefined)
IC50 [4]: > 47.1 µM (inactive) | EC50 [5]: > 53 µM (inactive)

Cc1cc(-c2[nH]nc3c2C(c2ccsc2)C(C#N)=C(N)O3)c(C)s1 (centres undefined)
AC50 [1]: 3.47 µM (active) | EC50 [2]: 1.2 µM (active)

CCN(CC(=O)NCc1ccc(F)cc1)C(=O)CN1CCN(c2ccc(OC)cc2)CC1
IC50 [3]: 42.3 µM (active)

CC1CN(CCCCN2C(=O)c3ccccc3C2=O)CC(C)O1 (centres undefined)
IC50 [3]: 125 µM (active)

O=c1c2ccccc2nc2n1C(CSc1ccc(F)cc1)CN2 (centres undefined)
AC50 [6]: 31.6 µM (inconclusive) | AC50 [7]: 39.8 µM (inconclusive)

Cc1sc2ncnc(Sc3ccccc3C(=O)Nc3ccc(C#N)cc3)c2c1C
IC50 [4]: > 47.1 µM (inactive) | EC50 [5]: > 53 µM (inactive)

Cc1cccc(NC(=O)C2CC2c2ccccc2)c1C (centres undefined)
EC50 [5]: > 53 µM (inactive)

Cc1ccc(-c2noc(-c3cc4ccccc4oc3=O)n2)cc1
AC50 [6]: 3.55 µM (inconclusive) | AC50 [7]: 6.31 µM (inconclusive)

CCOc1ccc(N(CC(=O)NCC2CCCO2)C(=O)CCC(=O)Nc2nccs2)cc1 (centres undefined)
IC50 [4]: > 47.1 µM (inactive) | EC50 [5]: > 53 µM (inactive)

COc1ccc([N+](=O)[O-])cc1N(CC(=O)NCCCOC(C)C)S(C)(=O)=O
IC50 [4]: > 47.1 µM (inactive) | EC50 [5]: > 53 µM (inactive)

COc1ccc(/C=C2/CC/C(=C\c3ccc(OC)c(OC)c3OC)C2=O)c(OC)c1OC
EC50 [5]: > 53 µM (inactive)

c1ccc(-c2ccccc2OCCN2CCOCC2)cc1
IC50 [3]: 111 µM (active)

CCc1ccc(C2C(C#N)=C(N)C(C#N)(C#N)C3=CCC(C(C)(C)C)CC32)cc1 (centres undefined)
EC50 [8]: 4.85 µM (active) | EC50 [9]: 5.84 µM (active) | EC50 [10]: > 150 µM (not active) | AC50 [1]: > 120 µM (inactive) | EC50 [2]: 3 µM (active)

COc1ccc(-c2cc(C(=O)O)nc3ccc4ccccc4c23)cc1OC
IC50 [4]: > 47.1 µM (inactive) | EC50 [5]: > 53 µM (inactive)

CC(NC(=O)C1CCCN1S(=O)(=O)c1cccc2nsnc12)c1ccccc1 (centres undefined)
IC50 [4]: > 47.1 µM (inactive) | EC50 [5]: > 53 µM (inactive)

COc1ccc(CN(C(=O)c2ccc(C)cc2)C2CCS(=O)(=O)C2)cc1 (centres undefined)
IC50 [4]: > 47.1 µM (inactive) | EC50 [5]: > 53 µM (inactive)

OCCN1CCN(C(S)=Nc2cccc(C(F)(F)F)c2)CC1
IC50 [3]: 126 µM (active)

O=C(CSCc1ccccc1)Nc1cc([N+](=O)[O-])ccc1F
IC50 [4]: > 47.1 µM (inactive) | EC50 [5]: > 53 µM (inactive)

CCCCC/C=C\C[C@H](O)/C=C\c1cccc(C[C@H](O)CCCCO)n1
AC50 [6]: 6.31 µM (inconclusive) | AC50 [7]: 20 µM (inconclusive)

COC(=O)c1ccc(CNC(=O)COC(=O)/C=C/c2ccc(O)c(OC)c2)cc1
IC50 [3]: 44.4 µM (active)

COc1cc(/C=C/C(=O)OCC(=O)N2CCCc3ccccc32)ccc1O
IC50 [3]: 36.1 µM (active)

O=C(NC(C(=O)c1ccccc1)n1cnccc1=O)c1ccccc1 (centres undefined)
AC50 [11]: 2.82 µM (inconclusive) | AC50 [6]: 14.1 µM (inconclusive) | AC50 [7]: 8.91 µM (inconclusive)

CCCCCCCCc1c(O)nc(-n2[nH]c(C)c(CCO)c2=O)[nH]c1=O
AC50 [1]: 47.4 µM (active) | EC50 [2]: 96.8 µM (active)

Cc1cc(=O)n(CCCc2ccccc2)[nH]1
AC50 [1]: 2.4 µM (active) | EC50 [2]: 2.23 µM (active)

Cc1nc2ccccc2nc1N/N=C/c1ccc(O)cc1
IC50 [3]: 29.2 µM (active)

COc1cc2oc(-c3ccc(O)cc3)cc(=O)c2c(OC)c1O
IC50 [3]: 18.2 µM (active)
